Data reported in patent publication US10653642B2, “Compositions and methods for the treatment of tauopathies” (UNIVERSITY OF SOUTH FLORIDA, priority 2017, dated 2020).

Experiments:
Format in all cases: cell-based
inducible tau = test: Western blot of tau levels in iHEK280 cells (inducible tau model); settings: for levels of phosphorylated tau / levels of total tau: 0.5-2.5 μM
Method: (§1) It was examined whether hexachlorophene can regulate levels of tau in cellular models. Three different cells lines were treated with hexachlorophene at various different doses. M17 neuroblastoma cells were treated with 1 μM, 2 μM, 3 μM, 5 μM, and 10 μM hexachlorophene. HeLa C3 cells were treated with 0.5 μM, 1 μM, 2 μM, 3 μM, and 5 μM hexachlorophene. iHEK280 cells (an inducible tau model) were treated with 0.5 μM, 1 μM, 1.5 μM, 2 μM, and 2.5 μM hexachlorophene. Cell lysates were analyzed by Western blotting for total tau, phosphorylated tau, and actin (as a control). We also analyzed the effect of hexachlorophene on various pathological forms of tau such as the phosphoserine 396 tau form that localizes to the soluble fraction. Hexachlorophene was purchased from Sigma-Aldrich (St. Louis, Mo.). BE(2) M17 neuroblastoma cells were purchased from ATCC (Manassas, Va.). HeLa C3 cells were generated according to Jinwal et al. (J. Neurosci. 2009, 29, 12079-12088). iHEK cells were generated according to Abisambra et al. (J. Neurosci. 2013, 33, 9498-9507). Neuro-2a (N2a) mouse neuroblastoma cells overexpressing human tau-GFP were generated in house.

endogenous tau = test: Western blot of tau levels in M17 neuroblastoma cells
Method: as §1

tau aggregates = test: Thioflavin-S staining of tau aggregates in HEK280 cells
Method: We examined the effect of hexachlorophene on tau aggregation using thioflavin-S staining. Thioflavin S is a mixture of compounds that results from the methylation of dehydrothiotoluidine with sulfonic acid, and it is used to stain tau aggregates. Upon binding tau aggregates, thioflavin S gives a distinct increase in fluorescence emission. Thioflavin-S staining was performed by incubating HEK280 cells with 0.1% thioflavin-S for 5 min, with or without 1 μM hexachlorophene. Cells were also labelled with a primary rabbit polyclonal Tau Antibody diluted with 5% goat serum and a secondary anti-rabbit antibody labeled with red. Cells containing distinct thioflavin-S signals indicating the presence of aggregated protein were scored in many independent fields containing a total of 500 cells.

over-expressed tau = biological target: T1, over-expressed tau (Homo sapiens, UniProt P10636); test: Western blot of tau levels in HeLa C3 cells with over-expressed tau; settings: for phosphorylated tau levels / total tau levels: 0.5-5 μM
T1 construct: expressed in transfected cells; host or cells: HeLa C3 cells
Method: as §1

human tau-GFP [1] = test: Immunofluorescence and confocal microscopy of Neuro-2a cells overexpressing human tau-GFP; settings: N2a cells, immunofluorescence, 0.1-3 μM, 24 hours
Description: Neuro-2a (N2a) mouse neuroblastoma cells overexpressing human tau-GFP were examined for the effect of hexachlorophene on tau protein using Western blot analysis. […] Immunofluorescence and confocal microscopy were also used to analyze the effect of hexachlorophene on the cells.

human tau-GFP [2] = test: Western blot of tau in Neuro-2a (N2a) mouse neuroblastoma cells overexpressing human tau-GFP; settings: nanomolar concentrations, 24 hours
Method: as §1
Neuro-2a (N2a) mouse neuroblastoma cells overexpressing human tau-GFP were examined for the effect of hexachlorophene on tau protein using Western blot analysis. […]

[3] = 24 hours, listed as Hexachlorophene

T1 sequence (P10636 1-383 isoform P10636-6): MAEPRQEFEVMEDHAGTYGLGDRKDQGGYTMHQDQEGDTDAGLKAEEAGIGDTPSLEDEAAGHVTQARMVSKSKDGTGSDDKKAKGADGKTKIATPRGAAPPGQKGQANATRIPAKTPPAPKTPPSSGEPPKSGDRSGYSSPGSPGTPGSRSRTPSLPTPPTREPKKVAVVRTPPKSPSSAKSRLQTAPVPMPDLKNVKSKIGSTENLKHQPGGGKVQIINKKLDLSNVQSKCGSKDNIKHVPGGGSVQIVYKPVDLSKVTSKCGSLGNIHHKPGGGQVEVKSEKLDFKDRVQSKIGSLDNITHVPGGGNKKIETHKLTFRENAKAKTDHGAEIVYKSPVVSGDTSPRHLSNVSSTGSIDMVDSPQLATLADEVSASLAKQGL

Question: Which “levels of phosphorylated serine 396 tau in the soluble fraction” value (shortened to “levels … in the soluble fraction”) (inducible tau) does the source give for Oc1c(Cl)cc(Cl)c(Cl)c1Cc1c(O)c(Cl)cc(Cl)c1Cl [hexachlorophene] here?
Answer: decreased

Question: And the “phosphorylated tau (Pser396)” value (inducible tau; 1.5 μM, 24 hours)?
Answer: completely cleared

Question: And the total tau (inducible tau; 1.5 μM, 24 hours)?
Answer: partially cleared

Question: What about the “phosphorylated tau (Pser396) levels” value (inducible tau; 2 μM, 24 hours) of the same compound?
Answer: cleared

Question: What about the total tau protein (inducible tau; 2 μM, 24 hours) of the same compound?
Answer: cleared

Question: And the “levels of phosphorylated tau” value (inducible tau; 24 hours)?
Answer: decreased

Question: What about the “levels of total tau” value (inducible tau; 24 hours) of the same compound?
Answer: decreased

Question: What about the “levels of phosphorylated tau” value (inducible tau; [3]) of the same compound?
Answer: significantly reduced

Question: What about the “levels of total tau” value (inducible tau; [3]) of the same compound?
Answer: significantly reduced

Question: And the “levels … in the soluble fraction” value (endogenous tau)?
Answer: decreased

Question: What about the “phosphorylated (Pser396) tau proteins” value (endogenous tau; 10 μM, 24 hours) of the same compound?
Answer: completely cleared

Question: What about the “levels of endogenous (total) tau” value (endogenous tau; 1-10 μM, 24 hours) of the same compound?
Answer: decreased

Question: What about the “phosphorylated form of endogenous tau” value (endogenous tau; 1-10 μM, 24 hours) of the same compound?
Answer: significantly reduced

Question: And the “levels of endogenous (total) tau” value (endogenous tau; 1-10 μM, 24 hours, listed as Hexachlorophene)?
Answer: significantly reduced

Question: And the “tau aggregation (thioflavin-S staining)” value (tau aggregates; 1 μM)?
Answer: significant reduction

Question: What about the “tau aggregates (thioflavin-S signal)” value (tau aggregates; 24 hours) of the same compound?
Answer: reduced

Question: And the “levels … in the soluble fraction” value (over-expressed tau)?
Answer: decreased

Question: What about the “phosphorylated tau (Pser396)” value (over-expressed tau; 2 μM, 24 hours) of the same compound?
Answer: completely cleared

Question: And the total tau (over-expressed tau; 2 μM, 24 hours)?
Answer: partially cleared

Question: And the phosphorylated tau levels (over-expressed tau; 24 hours)?
Answer: decreased

Question: What about the total tau levels (over-expressed tau; 24 hours) of the same compound?
Answer: decreased

Question: What about the phosphorylated tau levels (over-expressed tau; [3]) of the same compound?
Answer: significantly reduced

Question: And the total tau levels (over-expressed tau; [3])?
Answer: significantly reduced

Question: What about the “phosphorylated tau (Pser396 and Pser199)” value (human tau-GFP [1]) of the same compound?
Answer: reduced

Question: And the total tau protein (human tau-GFP [1])?
Answer: reduced

Question: What about the “phosphorylated tau (Pser396 & Pser199)” value (human tau-GFP [2]) of the same compound?
Answer: reduced

Question: What about the total tau protein (human tau-GFP [2]) of the same compound?
Answer: reduced
